Data set [1] is described as follows: Stability in the presence of glutathione (NMR). The note with it: up to 24 hours, DMSO-D6. Type of data set: physicochemical. An excerpt:
It is well known that compounds bearing an isocyanide group are usually highly reactive, capable of reacting with electrophiles, nucleophiles and radicals.^(30) As a result, it was important to identify any stability issues which might be encountered by the lead compounds, both in storage and in the presence of glutathione and cysteine. […] Another common feature of the lead compounds is the vinyl fragment. It was hypothesized that the presence of glutathione and cysteine found in eukaryotic cells could potentially interact with the electrophilic alkene group in the compounds, thus shutting down their antibiotic activity. To probe this potentially detrimental in vivo process, compound 39 was subjected to glutathione for up to 24 hours whilst compound 41 was added to cysteine for the same length of time.

Data set [2] has as its system Escherichia coli DH5α. Nature of the data set: Disc diffusion (Kirby-Bauer), zone of inhibition. Type of data set: cell-based. The note with it: Escherichia coli DH5α; 500 μg/mL; '/' = no zone. Here is the method:
(§1) E. coli DH5α, P. aeruginosa PA01 and the 53 S. aureus strains were recovered from frozen (−80° C.) glycerol (15% v/v) stocks on Lysogeny agar (LA)—Gram negative and trypticase soy agar (TSA)—plates at 37° C. for 24 hours. Single colonies were placed in either 3 mL Lysogeny broth (LB)—Gram negative or trypticase soy broth (TSB)—Gram positive and incubated at 37° C., 250 rpm for 18 hours.
(§2) The antibiotic activity was determined using a Kirby-Bauer method according to Clinical Standard Laboratory Institute (CSLI) Guidelines (2017). Briefly, 180 μL of a 1 in 200 dilution (in LB or TSB) of overnight cultures of selected Gram negative and Gram positive bacteria were applied to an agar plate containing the solid growth medium, Mueller-Hinton agar (MHA). Sterile discs, inoculated with 50 μL of antibiotic, were first added to the agar plate before the plates were incubated for 24 hours at 37° C. Following incubation, the zone of inhibition (if it existed) was recorded.

Data set [3] concerns Pseudomonas aeruginosa PA01. As to the kind of experiment: Disc diffusion (Kirby-Bauer), zone of inhibition. Type of data set: cell-based. The conditions noted are these: 500 μg/mL, '/' = no zone. The protocol:
as §1, §2

Data set [4] has as its system Staphylococcus aureus 15981. As to the kind of experiment: Disc diffusion (Kirby-Bauer), zone of inhibition. Type of data set: cell-based. The conditions noted are these: Staphylococcus aureus 15981; 500 μg/mL; '/' = no zone. Here is the method:
as §1, §2

Data set [5] relates to MRSA 252, MSSA 476, S. aureus 15981, P. aeruginosa PA01 and E. coli DH5α. As to the kind of experiment: Disc diffusion primary screening, five strains (statements in words). Type of data set: cell-based. The note with it: 500 μg/mL. Here is the method: As such, the minimum inhibition concentration (MICs) of biologically active compounds were further assessed using the broth dilution method against the S. aureus strains; MRSA 252 and MSSA 476 (Table 1). The results of both assays enabled key structural elements and functional groups required for the compounds to retain their antibiotic activity to be identified.
as §2
On the technique in general: A growth-free zone around the sample is the usual read-out of agar diffusion tests.

Data set [6] relates to MSSA 476. As to the kind of experiment: Disc diffusion (Kirby-Bauer), zone of inhibition. Type of data set: cell-based, Staphylococcus aureus. The note with it: 500 μg/mL, '/' = no zone. The protocol: as §1, §2
In data set [7] the test system is MRSA 252. As to the kind of experiment: Disc diffusion (Kirby-Bauer), zone of inhibition. Type of data set: cell-based, Staphylococcus aureus. The note with it: 500 μg/mL, '/' = no zone. Here is the method: as §1, §2
Data set [8] has as its system MSSA 476. As to the kind of experiment: MIC, broth micro-dilution. Type of data set: cell-based, Staphylococcus aureus. The protocol: as §1
(§3) Antibiotic MIC's were determined by a broth micro-dilution method according to Clinical Standard Laboratory Institute (CSLI) Guidelines (2017). Briefly, 96-well microplates, each containing 195 μL of the 1:2 dilution antibiotic in TSB, were inoculated with 5 μL of overnight cultured bacteria, diluted to give a starting bacterial concentration of 5×10^5 CFU/mL. The optical density of each well inoculated was recorded every 12 minutes over an 18 hour period at 37° C. The data from this was plotted in OriginPro8 (OriginLab) and sigmoidal curves fitted using the dose response function. Fitted values for each curve were used to calculate the MIC.
On the technique in general: Dilution methods test growth across graded concentrations, often in twofold steps.

Data set [9] concerns MRSA 252. As to the kind of experiment: MIC, broth micro-dilution. Type of data set: cell-based, Staphylococcus aureus. The protocol:
as §1, §3

Molecules are shown by their SMILES. Values after ≈ are worked out from the molar mass of the structure shown.

The term MIC denotes the lowest concentration that inhibits growth of the organism. Lower therefore signals a more susceptible organism. In the case of `[C-]#[N+]/C=C/c1ccccc1/C=C/c1ccncc1` [Compound 39], the “structure after exposure to glutathione (NMR)” value in [1] is “no change in the structure”. The Zone of inhibition was found to be 12 mm in data set [2]; 20 mm in data set [3]; 26 mm in [4]; 32 mm in data set [6]; 28 mm in [7]. Also, the “antibiotic activity in disc diffusion assays (in words)” value in [5] is “retaining its activity against the Gram negative P. aeruginosa and E. coli”. Moreover, the MIC turned out to be 15 µg/mL (≈ 64.6 µM) in data set [8] and 12 µg/mL (≈ 51.7 µM) in [9].

The values are drawn from patent US20240246905A1 (University of Leicester, priority 2021, published 2024).
